≈ marks a conversion by molar mass, not a printed value. Read-outs that look alike come from different tables or passages of the source.
Assays:
[1] = system: Penicillinsensitive S. aureus (5 strains); experiment: MIC, two-fold serial agar dilution, group (G+)-Ia; type: cell-based; settings: Staphylococcus aureus; Mueller-Hinton agar; penicillin-sensitive S. aureus; read-out: Geometric Mean of MIC (G+)-Ia (5 strains)
Protocol: (§1) In the primary evaluation of the compounds of this invention, the Minimum Inhibitory Concentrations (MIC's) of the compounds and two reference compounds (cefotaxime and ceftazidime) were determined by the two-fold serial agar dilution method in Mueller-Hinton agar against 32 strains of test organisms in six groups.

[2] = system: Penicillinresistant S. aureus (5 strains); experiment: MIC, two-fold serial agar dilution, group (G+)-Ib; type: cell-based; settings: Staphylococcus aureus, read-out: Geometric Mean of MIC (G+)-Ib (5)
Protocol: as §1
(G+)Ib: Penicillinresistant S. aureus (5 strains)

[3] = system: Cephalothinsensitive E. coli (2 strains), Kl. pneumoniae (1 strain) and Pr. mirabilis (2 strains); experiment: MIC, two-fold serial agar dilution, group (G-)-Ia; type: cell-based; settings: Mueller-Hinton agar; cephalothin-sensitive; read-out: Geometric Mean of MIC (G-)-Ia (5)
Protocol: as §1, with “The preferred compounds of Formula I are those in which R^1 is hydrogen and R^2 is methyl or ethyl. In the most preferred compound, R^2 is methyl. In the” for “In the”
(G-)Ia: Cephalothinsensitive E. coli (2 strains), Kl. pneumoniae (1
strain) and Pr. mirabilis (2 strains)

[4] = system: Cephalothinresistant E. coli (3 strains) and Kl. pneumoniae (3 strains); experiment: MIC, two-fold serial agar dilution, group (G-)-Ib; type: cell-based; settings: Escherichia coli, read-out: Geometric Mean of MIC (G-)-Ib (6)
Protocol: as §1

[5] = system: Pr. morganii (1 strain), Ent. cloacae (2 strains) and Ser. marcescens (2 strains); experiment: MIC, two-fold serial agar dilution, group (G-)-II; type: cell-based; settings: Mueller-Hinton agar; read-out: Geometric Mean of MIC (G-)-II (5)
Protocol: as §1

[6] = system: Ps. aeruginosa (6 strains); experiment: MIC, two-fold serial agar dilution, group (G-)-III; type: cell-based; settings: Pseudomonas aeruginosa; Mueller-Hinton agar; Ps. aeruginosa; read-out: Geometric Mean of MIC (G-)-III (6)
Protocol: as §1

[7] = Blood levels after single intramuscular administration to mice; settings: mouse, blood, im, 20 mg/kg
Excerpt: Blood samples were collected from the orbital sinuses into heparinized capillary tubes and assayed in Mueller-Hinton medium using Morganella morganii A9695 as the test organism.

Escherichia coli = experiment: MIC, resistant Enterobacteriaceae, Escherichia coli; type: cell-based; settings: Mueller-Hinton medium, read-out: Geometric Mean MIC
Klebsiella pneumoniae = experiment: MIC, resistant Enterobacteriaceae, Klebsiella pneumoniae; type: cell-based; settings: Mueller-Hinton medium, 1 strain, read-out: Geometric Mean MIC
Enterobacter aerogenes = experiment: MIC, resistant Enterobacteriaceae, Enterobacter aerogenes; type: cell-based; settings: Klebsiella aerogenes
Enterobacter cloacae = experiment: MIC, resistant Enterobacteriaceae, Enterobacter cloacae; type: cell-based
Citrobacter freundii = experiment: MIC, resistant Enterobacteriaceae, Citrobacter freundii; type: cell-based; settings: Mueller-Hinton medium, 2 strains, read-out: Geometric Mean MIC
Citrobacter species = experiment: MIC, resistant Enterobacteriaceae, Citrobacter species; type: cell-based; settings: Mueller-Hinton medium, 1 strain, read-out: Geometric Mean MIC
Proteus vulgaris = experiment: MIC, resistant Enterobacteriaceae, Proteus vulgaris; type: cell-based; settings: Mueller-Hinton medium, 1 strain, read-out: Geometric Mean MIC
Morganella morganii = experiment: MIC, resistant Enterobacteriaceae, Morganella morganii; type: cell-based; settings: Mueller-Hinton medium, 1 strain, read-out: Geometric Mean MIC
Serratia marcescens = experiment: MIC, resistant Enterobacteriaceae, Serratia marcescens; type: cell-based
[8] = system: 240 strains of Enterobacteriaceae; settings: resistant: MIC ≥8 μg/ml; 27 of 240 strains resistant to at least one compound

For `CO/N=C(\C(=O)N[C@@H]1C(=O)N2C(C(=O)O)=C(COC(C)=O)CS[C@H]12)c1csc(N)n1` [Cefotaxime], the MIC [1] was 1 µg/mL (≈ 2.2 µM), the MIC [2] was 2.2 µg/mL (≈ 4.83 µM) and the MIC [3] was 0.015 µg/mL (≈ 0.0329 µM). It also gave an MIC [4] of 0.35 µg/mL (≈ 0.768 µM), an MIC [5] of 4.1 µg/mL (≈ 9 µM) and an MIC [6] of 22 µg/mL (≈ 48.3 µM). For the same compound, the AUC [7] was 14900 ng·h/mL, the concentration at 10 min [7] was 27800 ng/mL and the concentration at 20 min [7] was 19300 ng/mL. For the same compound, the concentration at 0.5 h [7] was 13000 ng/mL, the concentration at 0.75 h [7] was 9100 ng/mL and the concentration at 1 h [7] was 4600 ng/mL. It also gave a concentration at 1.5 h [7] of 1200 ng/mL, a half-life [7] of 15 min and an MIC (Escherichia coli; 1 strain (first E. coli line)) of 8 µg/mL (≈ 17.6 µM). For the same compound, the MIC (Escherichia coli; 1 strain (second E. coli line)) was 8 µg/mL (≈ 17.6 µM), the MIC (Klebsiella pneumoniae) was 0.13 µg/mL (≈ 0.285 µM) and the MIC (Enterobacter aerogenes; Mueller-Hinton medium, 1 strain, read-out: Geometric Mean MIC) was 32 µg/mL (≈ 70.3 µM). The MIC (Enterobacter aerogenes; read-out: Geometric Mean MIC, Mueller-Hinton medium, 3 strains) was 13 µg/mL (≈ 28.5 µM), the MIC (Enterobacter cloacae; Mueller-Hinton medium, 3 strains (second E. cloacae line), read-out: Geometric Mean MIC) was 50 µg/mL (≈ 110 µM) and the MIC (Enterobacter cloacae; read-out: Geometric Mean MIC, Mueller-Hinton medium, 1 strain (first E. cloacae line)) was 8 µg/mL (≈ 17.6 µM). For the same compound, the MIC (Enterobacter cloacae; read-out: Geometric Mean MIC, Mueller-Hinton medium, 1 strain (fourth E. cloacae line)) was over 63 µg/mL, the MIC (Enterobacter cloacae; read-out: Geometric Mean MIC, Mueller-Hinton medium, 3 strains (third E. cloacae line)) was over 63 µg/mL and the MIC (Citrobacter freundii) was 32 µg/mL (≈ 70.3 µM). It also gave an MIC (Citrobacter species) of 32 µg/mL (≈ 70.3 µM), an MIC (Proteus vulgaris) of 8 µg/mL (≈ 17.6 µM) and an MIC (Morganella morganii) of 32 µg/mL (≈ 70.3 µM). The MIC (Serratia marcescens; Mueller-Hinton medium, 1 strain (fifth S. marcescens line), read-out: Geometric Mean MIC) was 8 µg/mL (≈ 17.6 µM), the MIC (Serratia marcescens; Mueller-Hinton medium, 2 strains (third S. marcescens line), read-out: Geometric Mean MIC) was 11 µg/mL (≈ 24.2 µM) and the MIC (Serratia marcescens; read-out: Geometric Mean MIC, Mueller-Hinton medium, 1 strain (first S. marcescens line)) was 16 µg/mL (≈ 35.1 µM). It also gave an MIC (Serratia marcescens; read-out: Geometric Mean MIC, Mueller-Hinton medium, 1 strain (fourth S. marcescens line)) of 63 µg/mL (≈ 138 µM), an MIC (Serratia marcescens; read-out: Geometric Mean MIC, Mueller-Hinton medium, 1 strain (second S. marcescens line)) of 16 µg/mL (≈ 35.1 µM) and an MIC (Serratia marcescens; read-out: Geometric Mean MIC, Mueller-Hinton medium, 1 strain (sixth S. marcescens line)) of over 63 µg/mL. The “Total Number of Resistant Strains” value [8] was 18.
